Structures can show the parent of a compound that is named as a salt.
molecular target: T1, ACAT (Oryctolagus cuniculus, UniProt G1SFD9); test: Test of ACAT Inhibitory Activity (rabbit small intestinal microsome fraction); format: biochemical; settings: rabbit small intestinal microsomes, [1-14C]oleyl coenzyme, pH 7.4, 37° C., 6 minutes
T1 construct: A microsome fraction of a rabbit small intestine prepared in a usual manner; from tissue; host or cells: rabbit small intestine, microsome fraction
T1 sequence (G1SFD9 1-524): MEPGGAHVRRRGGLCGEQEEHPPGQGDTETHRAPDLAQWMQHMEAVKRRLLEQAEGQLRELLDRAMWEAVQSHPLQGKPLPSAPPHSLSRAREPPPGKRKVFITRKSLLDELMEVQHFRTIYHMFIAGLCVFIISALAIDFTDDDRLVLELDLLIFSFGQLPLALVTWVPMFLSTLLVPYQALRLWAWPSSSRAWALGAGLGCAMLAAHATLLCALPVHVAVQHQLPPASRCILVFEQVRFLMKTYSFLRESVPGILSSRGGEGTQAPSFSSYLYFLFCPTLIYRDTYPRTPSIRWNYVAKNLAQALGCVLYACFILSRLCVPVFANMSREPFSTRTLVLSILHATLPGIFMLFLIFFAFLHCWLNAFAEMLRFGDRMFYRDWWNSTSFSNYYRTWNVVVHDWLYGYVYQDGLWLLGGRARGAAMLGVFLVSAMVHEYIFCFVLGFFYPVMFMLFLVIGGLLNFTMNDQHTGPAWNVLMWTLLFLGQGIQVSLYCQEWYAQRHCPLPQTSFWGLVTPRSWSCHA
Experimental: Test of ACAT Inhibitory Activity
The test was carried out in accordance with the method described in J. Lipid Res., Vol. 22, p.
A microsome fraction of a rabbit small intestine prepared in a usual manner was suspended in a 0.04N potassium phosphate buffer solution (pH 7.4) containing 0.1N sucrose, 0.03N ethylenediaminetetraacetic acid (EDTA), and 0.05N potassium chloride. Each drug to be tested was dissolved in dimethyl sulfoxide.
The rabbit small intestinal microsome fraction suspension prepared above (250 μg as protein) and [1-^14 C]oleyl coenzyme were added to a 0.05N phosphate buffer solution (pH 7.4) containing 1% bovine serum albumin, followed by addition of a drug to be tested in a varied concentration. The total volume of the mixture was adjusted to 500 μl to prepare a sample. For control, a sample was prepared in the same manner, except for adding no test drug. The sample was incubated at 37° C. for 6 minutes, and the reaction was terminated by addition of a mixture of chloroform and methanol (mixing ratio=2:1). After stirring, the chloroform layer was collected and concentrated to dryness. […] A gel portion corresponding to cholesterol oleate was scraped, and its radioactivity was measured with a liquid scintillation counter (LSC-3000, manufactured by Aloka Co., Ltd.). Percent inhibition on ACAT activity was calculated using the following equation to obtain an IC50 value. [formula]

IC50 [µM] | SMILES
0.01 to 0.1 | CC(C)c1cccc(C(C)C)c1NC(=O)CSCCCCCCN1CCN(c2ccccc2)CC1 [Compound 1, N-(2,6-Diisopropylphenyl)-2-[6-(4-phenylpiperazinyl)hexylthio]acetamide]
0.01 to 0.1 | COc1ccccc1N1CCN(CCCCCCSCC(=O)Nc2c(C(C)C)cccc2C(C)C)CC1 [Compound 2, N-(2,6-Diisopropylphenyl)-2-{6-[4-(2-methoxyphenyl)piperazinyl]hexylthio}acetamide dihydrochloride]
0.01 to 0.1 | COc1ccc(N2CCN(CCCCCCSCC(=O)Nc3c(C(C)C)cccc3C(C)C)CC2)cc1 [Compound 3, N-(2,6-Diisopropylphenyl)-2-{6-[4-(4methoxyphenyl)piperazinyl]hexylthio}acetamide]
0.01 to 0.1 | CC(C)c1cccc(C(C)C)c1NC(=O)CSCCCCCCN1CCN(c2ccccc2Cl)CC1 [Compound 4, N-(2,6-Diisopropylphenyl)-2-{6-[4-(2-chlorophenyl)piperazinyl]hexylthio}acetamide]
0.01 to 0.1 | CC(C)c1cccc(C(C)C)c1NC(=O)CSCCCCCCN1CCN(c2ccccn2)CC1 [Compound 5, N-(2,6-Diisopropylphenyl)-2-{6-[4-(2pyridyl)piperazinyl]hexylthio}acetamide]
0.01 to 0.1 | CC(C)c1cccc(C(C)C)c1NC(=O)CSCCCCCCN1CCN(c2ncccn2)CC1 [Compound 6, N-(2,6-Diisopropylphenyl)-2-{6-[4-(2-pyrimidyl)piperazinyl]hexylthio}acetamide]
0.01 to 0.1 | CC(C)c1cccc(C(C)C)c1NC(=O)CSCCCCCCN1CCN(c2cccc(Cl)c2)CC1 [Compound 7, N-(2,6-Diisopropylphenyl)-2-{6-[4-(3-chlorophenyl)piperazinyl]hexylthio}acetamide]
0.01 to 0.1 | Cc1cccc(N2CCN(CCCCCCSCC(=O)Nc3c(C(C)C)cccc3C(C)C)CC2)c1 [Compound 8, N-(2,6-Diisopropylphenyl)-2-{6-[4-(3-methylphenyl)piperazinyl]hexylthio}acetamide]
0.01 to 0.1 | Cc1ccccc1N1CCN(CCCCCCSCC(=O)Nc2c(C(C)C)cccc2C(C)C)CC1 [Compound 9, N-(2,6-Diisopropylphenyl)-2-{6-[4-(2-methylphenyl)piperazinyl]hexylthio}acetamide fumarate]
0.01 to 0.1 | CC(C)c1cccc(C(C)C)c1NC(=O)CSCCCCCCN1CCN(c2cccc(C(F)(F)F)c2)CC1 [Compound 10, N-(2,6-Diisopropylphenyl)-2-{6-[4-(3-trifluoromethylphenyl)piperazinyl]hexylthio}acetamide]
0.01 to 0.1 | CC(C)c1cccc(C(C)C)c1NC(=O)CSCCCCCCN1CCN(c2ccc(F)cc2)CC1 [Compound 11, N-(2,6-Diisopropylphenyl)-2-{6-[4-(4-fluorophenyl)piperazinyl]hexylthio}acetamide]
0.01 to 0.1 | CC(C)c1cccc(C(C)C)c1NC(=O)CSCCCCCCN1CCN(c2ccccc2[N+](=O)[O-])CC1 [Compound 12, N-(2,6-Diisopropylphenyl)-2-{6-[4-(2-nitrophenyl)piperazinyl]hexylthio}acetamide]
0.01 to 0.1 | CC(C)c1cccc(C(C)C)c1NC(=O)CSCCCCCCN1CCN(c2cccc(C(F)(F)F)n2)CC1 [Compound 14, N-(2,6-Diisopropylphenyl)-2-{6-[4-(6-trifluoromethyl-2-pyridyl)piperazinyl]hexylthio}acetamide]
0.01 to 0.1 | CC(C)c1cccc(C(C)C)c1NC(=O)CSCCCCCCN1CCN(c2cc(Cl)ccn2)CC1 [Compound 15, N-(2,6-Diisopropylphenyl)-2-{6-[4-(4-chloro-2-pyridyl)piperazinyl]hexylthio}acetamide]
0.01 to 0.1 | CC(C)c1cccc(C(C)C)c1NC(=O)CSCCCCCCN1CCN(c2ccc(Cl)cc2)CC1 [Compound 16, N-(2,6-Diisopropylphenyl)-2-{6-[4-(4-chlorophenyl)piperazinyl]hexylthio}acetamide]
0.01 to 0.1 | CC(C)c1cccc(C(C)C)c1NC(=O)CSCCN1CCN(c2ccccc2)CC1 [Compound 17, N-(2,6-Diisopropylphenyl)-2-[2-(4-phenylpiperazinyl)ethylthio]acetamide dihydrochloride]
0.01 to 0.1 | CC(C)c1cccc(C(C)C)c1NC(=O)CSCCCN1CCN(c2ccccc2)CC1 [Compound 18, N-(2,6-Diisopropylphenyl)-2-[3-(4-phenylpiperazinyl)propylthio]acetamide dihydrochloride]
0.01 to 0.1 | CC(C)c1cccc(C(C)C)c1NC(=O)CSCCCCN1CCN(c2ccccc2)CC1 [Compound 19, N-(2,6-Diisopropylphenyl)-2-[4-(4-phenylpiperazinyl)butylthio]acetamide dihydrochloride]
0.001 to 0.01 | CC(C)c1cccc(C(C)C)c1NC(=O)CSCCCCCCCCN1CCN(c2ccccc2)CC1 [Compound 21, N-(2,6-Diisopropylphenyl)-2-[8-(4-phenylpiperazinyl)octylthio]acetamide]
0.01 to 0.1 | CC(C)c1cccc(C(C)C)c1NC(=O)CSCCCCCCCCCN1CCN(c2ccccc2)CC1 [Compound 22, N-(2,6-Diisopropylphenyl)-2-[9-(4-phenylpiperazinyl)nonylthio]acetamide]
0.01 to 0.1 | CC(C)c1cccc(C(C)C)c1NC(=O)CSCCCCCCCCCCN1CCN(c2ccccc2)CC1 [Compound 23, N-(2,6-Diisopropylphenyl)-2-[10-(4-phenylpiperazinyl)decylthio]acetamide]
0.01 to 0.1 | CC(C)c1cccc(C(C)C)c1NC(=O)CSCCCCCCCCCCCCN1CCN(c2ccccc2)CC1 [Compound 24, N-(2,6-Diisopropylphenyl)-2-[12-(4-phenylpiperazinyl)dodecylthio]acetamide]
0.01 to 0.1 | CC(C)c1cccc(C(C)C)c1NC(=O)CSCCCCCCCN1CCN(c2ccccc2)CC1 [Compound 25, N-(2,6-Diisopropylphenyl)-2-[7-(4-phenylpiperazinyl)heptylthio]acetamide]

system: Normal Rat; test: Test of Lipid Reduction in Normal Rat; format: in vivo, rat (male Wister); settings: compared with the control, oral 100 mg/kg for 3 days
Experimental: Test of Lipid Reduction in Normal Rat
Five 5-week-old male Wister rats per group were used as test animals. Each test drug was orally administered to the rat at a dose of 100 mg/kg for 3 days. A blood sample was taken from the rat having been deprive of food for 18 hours from the final administration, and the serum was separated. A total cholesterol value and a total triglyceride value were measured with an autoanalyzer (Hitachi 7150) in accordance with an enzyme method (Autosera, manufactured by Daiichi Kagaku K.K.). Lipoprotein was separated by a precipitation method (HDL-C.2, manufactured by Daiichi Kagaku K.K.), and the cholesterol in the lipoprotein was determined by an enzyme method. Five ml/kg of each test drug suspended in a 0.2% aqueous solution of sodium carboxymethyl cellulose was administered. For control, the same sodium carboxymethyl cellulose solution containing no test drug was administered.
Note: "Percent change" in Tables 2 and 3 is a rate of change in the respective cholesterol value compared with the control.

SMILES | Cholesterol in High Density Lipoprotein, Percent Change [%] | Cholesterol in Low Density Lipoprotein, Percent Change [%] | Total Cholesterol in Serum, Percent Change [%] | Total Triglyceride in Serum, Percent Change [%]
CC(C)c1cccc(C(C)C)c1NC(=O)CSCCCCCCN1CCN(c2ccccc2)CC1 [Compound 1, N-(2,6-Diisopropylphenyl)-2-[6-(4-phenylpiperazinyl)hexylthio]acetamide] | 3.4 | -50.8 | -12.2 | -41.6
CCCCCCCCCCC(C)(C)C(=O)Nc1c(OC)cc(OC)cc1OC [Compound B, N-(2,4,6-Trimethoxyphenyl)-2,2-dimethyldodecylamide, reference compound] | 15.5 | 0.0 | 7.1 | 18.8

same assay, conditions: oral 100 mg/kg for 3 days, fasted 18 hours

SMILES | Cholesterol in High Density Lipoprotein, Measured Value [mg/dL] | Cholesterol in Low Density Lipoprotein, Measured Value [mg/dL] | Total Cholesterol in Serum, Measured Value [mg/dL] | Total Triglyceride in Serum, Measured Value [mg/dL]
CC(C)c1cccc(C(C)C)c1NC(=O)CSCCCCCCN1CCN(c2ccccc2)CC1 [Compound 1, N-(2,6-Diisopropylphenyl)-2-[6-(4-phenylpiperazinyl)hexylthio]acetamide] | 46.0 ± 1.7 | 5.8 ± 2.0 | 51.8 ± 3.2 | 51.6 ± 2.7
CCCCCCCCCCC(C)(C)C(=O)Nc1c(OC)cc(OC)cc1OC [Compound B, N-(2,4,6-Trimethoxyphenyl)-2,2-dimethyldodecylamide, reference compound] | 51.4 ± 2.2 | 11.8 ± 5.1 | 63.2 ± 3.1 | 108.0 ± 5.1

Source: patent publication US5416212A, “Anilide derivatives” (Taisho Pharmaceutical Co., Ltd., priority 1991, dated 1995)
